The text below walks through data of PMC3859608, “C-Terminus of the B-Chain of Relaxin-3 Is Important for Receptor Activity” (PLoS ONE, 2013).

“Also recorded” adds a separate entry of the source.

Assay [1] has as its target T1, RXFP4 (Homo sapiens, UniProt Q8TDU9).
T1 construct: expressed in transfected cells
The conditions noted are these: both A and B chain C-termini amidated vs acid; cited from earlier work. The text has this:
Relaxin-3 is closely related to insulin-like peptide 5 (INSL5) as they both belong to the same branch in the phylogenetic tree of the relaxin family. In addition, the native receptors of relaxin-3 and INSL5, RXFP3 and RXFP4 respectively, belong to the same class of G-protein coupled receptors. On the basis of such close relationship between ligands (relaxin-3 and INSL5) and receptors (RXFP3 and RXFP4), it is most likely that relaxin-3 interacts with RXFP3 in a similar way to INSL5 interaction with RXFP4. Therefore, we tested all four H3 relaxin analogues on RXFP4. As expected, the H3 acid pept ... || The bioactivity of many polypeptide hormones often requires a form of post-translational modification of their precursors. An example of a widespread modification is C-terminal amidation which often leads to an increase in bioactivity of peptides [32]–[35]. In some cases, amidation of the C-terminus has been reported to have detrimental effect on the activity of peptides, [36]. […] In the case of relaxin family peptides, H2 relaxin and INSL3, both p ...

For a further assay, the system named is RXFP1. The conditions noted are these: cited from earlier work. The text has this: (§1) It is a neuropeptide that is primarily expressed in the brain with the highest level detected in the nucleus incertus (NI) of the mouse, [8], rat, macaque and human. Neurons from the NI project to many regions of the brain where its distribution overlaps w ...
Assay [2] deals with T2, RXFP3 (Homo sapiens, UniProt Q9NSD7).
T2 construct: expressed in transfected cells
T2 sequence (Q9NSD7 1-469): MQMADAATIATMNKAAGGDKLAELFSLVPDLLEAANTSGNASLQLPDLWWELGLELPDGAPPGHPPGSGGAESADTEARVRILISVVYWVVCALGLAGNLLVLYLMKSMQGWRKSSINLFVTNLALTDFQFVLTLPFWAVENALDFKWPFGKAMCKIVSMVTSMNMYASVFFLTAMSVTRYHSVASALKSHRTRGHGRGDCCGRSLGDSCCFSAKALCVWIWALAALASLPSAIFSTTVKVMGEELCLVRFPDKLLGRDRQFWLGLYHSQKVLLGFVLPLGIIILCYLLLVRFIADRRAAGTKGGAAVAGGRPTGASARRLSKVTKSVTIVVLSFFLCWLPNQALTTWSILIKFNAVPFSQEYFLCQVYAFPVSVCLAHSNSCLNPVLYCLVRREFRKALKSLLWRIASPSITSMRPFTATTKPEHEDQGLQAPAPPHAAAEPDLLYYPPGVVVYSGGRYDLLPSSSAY
The conditions noted are these: cited from earlier work.
Description: as §1

The target in assay [3] is T1, RXFP4. The conditions noted are these: sentence cites ref 7; cited from earlier work.
Description: as §1

Assay [4] concerns the target T2, RXFP3. The conditions noted are these: in presence of orthosteric agonist; H3 amide or H3 acid; cited from earlier work. The text has this:
In this endeavour, a small molecule, 135PAM1, has recently been discovered by Alvarez-Jaimes et al. They reported that it was an allosteric modulator of RXFP3 that worked in the presence of an orthosteric agonist, H3 relaxin.

Assay [5] deals with T2, RXFP3. The assay is described as follows: Competition binding, Eu-labelled I5/R3, CHO-K1 cells expressing RXFP3. The conditions noted are these: CHO-K1 cells stably expressing RXFP3; Eu-I5/R3 0.5 nM; one site competition fit; mean ± SEM, n in parentheses in cell (3; H3 amide 4), triplicate determinations; ** p<0.01 vs H3 acid (H3 amide, H3 A-acid); read-out: RXFP3 Eu-H3/I5 pKi (converted). The protocol: (§2) The receptor binding affinity of the peptides was measured using CHO-K1 cells stably expressing RXFP3 and RXFP4. The competition binding assays were carried out as previously described, [27]. Briefly, a single concentration of Eu-labelled I5/R3 (0.5 nM) or Eu-labelled mouse INSL5 (2.5 nM) were used in presence of increasing concentration of peptides. The data were analyzed using GraphPad PRISM 5 (GraphPad Inc., San Diego, USA). The europium binding curves were fitted to a one site competition curve and the pKi values were expressed as the mean ± SEM of at least three independent experiments with triplicate determinations within each assay.
(§3) Figure 2 Receptor binding affinity (pKi) and cAMP activity (pEC-50) curves of H3 relaxin and its variants at RXFP3. A) Competition binding curves of H3 relaxin variants using a single concentration of Eu-I5/R3 (0.5 nM) in the presence of increasing concentrations of the H3 relaxin peptides. B) RXFP3 activation curves of H3 relaxin variants measured in a cAMP activity assay in the presence of 5 µM forskolin. The data were expressed as mean ± SEM. from at least three independent experiments.

Assay [6] concerns the target T2, RXFP3. The assay can be described thus: cAMP activity (inhibition of forskolin-induced cAMP), CHO-K1 cells expressing RXFP3. The format is cell-based. The conditions noted are these: CHO-K1 RXFP3, pCRE-β-galactosidase reporter; forskolin 1 µM (method) / 5 µM (Fig. 2 legend); peptide 0.01 nM – 1 µM; mean ± SEM, n = 3, triplicate determinations; ** p<0.01 vs H3 acid (H3 amide, H3 A-acid); read-out: RXFP3 cAMP pEC50 (converted). The protocol:
(§4) The ability of the peptides to activate the receptors RXFP3/RXFP4 was assessed by measuring their influence on cAMP signalling in CHO-K1 cells stably expressing RXFP3 or RXFP4 transfected with a pCRE-β-galactosidase reporter gene construct as previously described. A single concentration of forskolin was used to stimulate cAMP signalling in cells expressing RXFP3 (1 µM) and RXFP4 (5 µM) and peptide induced inhibition of cAMP signalling was measured by adding increasing concentrations of the peptides (0.01 nM – 1 µM). The ability of the peptides to inhibit forskolin-induced cAMP response (pEC50) was measured and expressed as mean ± SEM from three independent experiments with triplicate determinations within each assay. The inhibition curves were fitted to a single-site sigmoidal dose-response curve with variable slope using Graphpad PRISM 5.
as §3

The target of assay [7] is T1, RXFP4. The assay is described as follows: Competition binding, Eu-labelled mouse INSL5, CHO-K1 cells expressing RXFP4. The conditions noted are these: CHO-K1 cells stably expressing RXFP4; Eu-labelled mouse INSL5 2.5 nM; one site competition fit; mean ± SEM, n = 3, triplicate determinations; vs H3 acid: * H3 amide, ** p<0.01 H3 A-acid; read-out: RXFP4 Eu-INSL5 pKi (converted). The procedure: as §2
(§5) Figure 3 Receptor binding affinity (pKi) and cAMP activity (pEC-50) curves of H3 relaxin and its variants at RXFP4. A) Competition binding curves of H3 relaxin variants at RXFP4 using a single concentration of Eu-INSL5 (2.5 nM) in the presence of increasing concentrations of the H3 relaxin peptides. B) RXFP4 activation curves of H3 relaxin variants measured in a cAMP activity assays in the presence of 1 µM forskolin. The data were expressed as mean ± SEM from at least three independent experiments.

In assay [8] the target is T1, RXFP4. The assay is described as follows: cAMP activity (inhibition of forskolin-induced cAMP), CHO-K1 cells expressing RXFP4. The format is cell-based. The conditions noted are these: CHO-K1 RXFP4, pCRE-β-galactosidase reporter; forskolin 5 µM (method) / 1 µM (Fig. 3 legend); peptide 0.01 nM – 1 µM; mean ± SEM, n = 3, triplicate determinations; vs H3 acid: * H3 amide, ** p<0.01 H3 A-acid; read-out: RXFP4 cAMP pEC50 (converted). The procedure:
as §4, §5

T1 sequence (Q8TDU9 whole entry, species assumed): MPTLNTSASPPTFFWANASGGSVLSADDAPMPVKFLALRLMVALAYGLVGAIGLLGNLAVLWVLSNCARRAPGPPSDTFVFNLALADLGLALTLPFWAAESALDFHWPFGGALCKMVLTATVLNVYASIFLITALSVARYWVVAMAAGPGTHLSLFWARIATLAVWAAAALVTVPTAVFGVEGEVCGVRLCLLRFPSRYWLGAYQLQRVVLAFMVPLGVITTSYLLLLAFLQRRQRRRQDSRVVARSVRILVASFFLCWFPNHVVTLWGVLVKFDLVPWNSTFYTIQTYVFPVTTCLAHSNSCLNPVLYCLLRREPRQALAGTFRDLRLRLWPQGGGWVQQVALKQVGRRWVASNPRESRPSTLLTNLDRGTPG

For “INSL5: insulin-like peptide 5; native ligand of RXFP4 (Insulin-like peptide INSL5 B … KESVRLCGLEYIRTVIYICASSRW; Insulin-like peptide INSL5 A … QDLQTLCCTDGCSMTDLSALC; UniProt Q9Y5Q6 23-46; Q9Y5Q6 115-135, looked up)”, in the assay with RXFP4 [1], the “C-terminus requirement for RXFP4 activity of INSL5” value was “need to be an acid for full RXFP4 activity; also recorded: C-termini were required to be free (acid) for high RXFP4 activity”.
Consider “H3 relaxin: neuropeptide with two chains (A and B) connected by three disulfide bonds”, for which the “interaction with RXFP1” value with RXFP1 was “with high affinity”. Moreover, the “binding and activation of RXFP3” value with RXFP3 [2] was “binds and activates its cognate receptor”. The “interaction with RXFP4” value with RXFP4 [3] is “with high affinity”.
`COc1ccc2[nH]cc(CCN(Cc3ccc(Cl)c(Cl)c3)C(=O)Nc3cc(C(F)(F)F)cc(C(F)(F)F)c3)c2c1` [135PAM1]: at RXFP3 [4], the “allosteric activity of 135PAM1, dependence on H3 relaxin C-terminus” value is reported as “active only when used with the non-native amidated form of H3 relaxin; also recorded: unable to act in the presence of the native form (acid) of H3 relaxin”.
As for `CC[C@H](C)[C@@H]1NC(=O)[C@H](Cc2ccccc2)NC(=O)[C@H](CCC(=O)O)NC(=O)[C@H](CCCNC(=N)N)NC(=O)CNC(=O)[C@@H](NC(=O)[C@H](CC(C)C)NC(=O)[C@H](CCCNC(=N)N)NC(=O)[C@@H](NC(=O)CNC(=O)[C@H](Cc2ccc(O)cc2)NC(=O)[C@@H]2CCCN2C(=O)[C@H](C)NC(=O)[C@H](C)NC(=O)[C@@H](N)CCCNC(=N)N)C(C)C)CSSC[C@@H]2NC(=O)[C@@H](NC(=O)[C@H](CO)NC(=O)[C@H](CO)NC(=O)[C@H](CO)NC(=O)[C@H](CC(C)C)NC(=O)CNC(=O)[C@H](C)NC(=O)[C@H](CC(C)C)NC(=O)[C@@H](NC(=O)[C@@H](N)CC(=O)O)C(C)C)CSSC[C@H](NC(=O)CNC(=O)[C@H](Cc3c[nH]c4ccccc34)NC(=O)[C@H](CCCCN)NC2=O)C(=O)N[C@@H](CO)C(=O)N[C@@H](CCCCN)C(=O)N[C@@H](CO)C(=O)N[C@@H](CCC(=O)O)C(=O)N[C@@H]([C@@H](C)CC)C(=O)N[C@@H](CO)C(=O)N[C@@H](CO)C(=O)N[C@@H](CC(C)C)C(=O)N[C@H](C(N)=O)CSSC[C@@H](C(=O)NCC(=O)NCC(=O)N[C@@H](CO)C(=O)N[C@@H](CCCNC(=N)N)C(=O)N[C@@H](Cc2c[nH]c3ccccc23)C(N)=O)NC(=O)[C@H]([C@@H](C)O)NC(=O)[C@H](Cc2ccccc2)NC(=O)[C@H]([C@@H](C)CC)NC(=O)[C@H](C(C)C)NC(=O)[C@H](C)NC(=O)[C@H](CCCNC(=N)N)NC1=O` [H3 amide], the Ki on RXFP3 [5] was 158 nM; on RXFP4 [7] it was 39.8 nM. In addition, the EC50 is 7.24 nM on RXFP3 [6] and 4.17 nM on RXFP4 [8].
